Test results as given in patent US8975228B2, “Use of boswellic acids for the prophylaxis and/or treatment of damage to and/or inflammation of the islets of Langerhans” (Fraunhofer-Gesellschaft zur Forderung der Angewandten …, priority 2010, dated 2015).

Key:
[1] = test system: islets of Langerhans; assay: Histology of pancreas in MLD-STZ diabetic mice (H&E, anti-CD3, anti-activated caspase 3); type: in vivo, mouse; details: STZ 40 mg/kg i.p. 5 days; 10 days i.p. BE 150 mg/kg, AKBA 15 mg/kg or KBA 7.5 mg/kg; examined day 10
From the text: (§1) The use of “multiple low dose streptozotocin” (MOL-STZ diabetes) is an acknowledged animal model for inducing diabetes that occurs frequently in association with insulitis, which corresponds to IDDM in humans. In the pathogenesis, macrophages and T-lymphocytes infiltrate the islets of Langerhans and the B-cells are destroyed. MLD-STZ induced diabetes is very well suited for investigating the anti-diabetic and/or anti-inflammatory effect of drugs on the pancreatic islets. For inducing MLD-STZ diabetes, a mouse is dosed with 40 mg/kg STZ per day intraperitoneally (i.p.) over 5 days. During this time there is no B-cell destruction. Only after 10 to 15 days after the first injection of STZ do signs of inflammation of the islets of Langerhans appear, when T-lymphocytes infiltrate and the B-cells are being destroyed. After about 16 days, the symptoms of the inflammation have disappeared again. Most B-cells have died. As a consequence, insulin secretion is reduced or no longer existent (cf. McEvoy et al. 1984, “Multiple low-dose streptozotocin-induced diabetes in the mouse”, Evidence for stimulation of a cytotoxic cellular immune response against an insulin-producing beta cell line, J Clin Invest, 74:715-22). This animal model of experimental induction of diabetes mellitus essentially corresponds with the pathogenesis of type 1 diabetes in young humans.
In order to investigate the effect of an extract containing boswellic acids on the damage and/or inflammation of the islets of Langerhans, a group of mice was dosed with streptozotocin alone and another group of mice was dosed with streptozotocin plus boswellic acid extract (a mixture of boswellic acids with an overall concentration of all boswellic acids of 62%) The aforesaid extract contained 5.51% KBA and 4.96% AKBA. From the 1st to the 10th day, C3M/HeN and Bk +/+ were administered i.p with a dose of 150 mg/kg body weight in male mice of strains bred in the laboratory. […]

[2] = Blood glucose level in MLD-STZ diabetic mice; type: in vivo, mouse; details: for STZ-induced increase of the blood glucose level: single substance i.p. daily 10 days, AKBA 15 mg/kg, KBA 7.5 mg/kg
From the text: as §1
For inducing MLD-STZ diabetes, the animals were injected i.p. 40 mg/kg STZ a day for a period of five days. In group A the animals were additionally treated with 150 mg/kg BE i.p. for 5 days (FIG. 5A), in group B for 10 days (FIG. 5B) and in group C for 21 days (FIG. 5C).
The animals were treated for 5 days with STZ as described above. AKBA in solution in Tween 80 was injected i.p. daily for 10 days.

[3] = test system: IFN-γ; assay: Serum pro-inflammatory cytokines in MLD-STZ diabetic mice; type: in vivo, mouse; details: 10 days i.p.; BE 150 mg/kg, AKBA 15.0 mg/kg, KBA 7.5 mg/kg
Protocol: (§2) Male mice were injected i.p. 40 mg/kg STZ for 5 days (STZ group, group A). A second group was, in addition to STZ, treated i.p. with 150 mg/kg BE for 10 days (group STZ+BE, group B). A further group (group C) remained untreated. After 10 days blood samples were taken.
(§3) In further tests, 15.0 mg/kg AKBA or 7.5 mg/kg KBA respectively were administered instead of 150 mg/kg BE.
(§4) Ten days after daily i.p. injections of 150 mg/kg of boswellia extract, of 15.0 mg/kg AKBA or 7.5 mg/kg KBA in MLD-STZ animals (40 mg/kg i.p. for 5 days) the presence of cytokines was determined using the commercially available Multianalyte Array TM Kits (mouse-inflammatory cytokines, SA Bioscience Corporation, USA) according to the instructions on usage provided by the manufacturer. The cytokines IL-1A, IL-1B, IL-2, IFN-γ, IL-6 and TNF-α were ascertained.

[4] = test system: IL-1A; assay: as above; type: in vivo, mouse; details: 10 days i.p.; BE 150 mg/kg, AKBA 15.0 mg/kg, KBA 7.5 mg/kg
Protocol: as §2, §3, §4

[5] = test system: IL-1B; assay: as above; type: in vivo, mouse; details: 10 days i.p.; BE 150 mg/kg, AKBA 15.0 mg/kg, KBA 7.5 mg/kg
Protocol: as §2, §3, §4

[6] = test system: IL-2; assay: as above; type: in vivo, mouse; details: 10 days i.p.; BE 150 mg/kg, AKBA 15.0 mg/kg, KBA 7.5 mg/kg
Protocol: as §2, §3, §4

[7] = test system: IL-6; assay: as above; type: in vivo, mouse; details: 10 days i.p.; BE 150 mg/kg, AKBA 15.0 mg/kg, KBA 7.5 mg/kg
Protocol: as §2, §3, §4

[8] = test system: TNF-α; assay: as above; type: in vivo, mouse; details: 10 days i.p.; BE 150 mg/kg, AKBA 15.0 mg/kg, KBA 7.5 mg/kg
Protocol: as §2, §3, §4

[9] = biological target: T1, 5-Lipoxygenase (leukotriene) (Homo sapiens, UniProt P09917); details: in vitro, technical literature; cited from earlier work
T1 sequence (P09917 1-674): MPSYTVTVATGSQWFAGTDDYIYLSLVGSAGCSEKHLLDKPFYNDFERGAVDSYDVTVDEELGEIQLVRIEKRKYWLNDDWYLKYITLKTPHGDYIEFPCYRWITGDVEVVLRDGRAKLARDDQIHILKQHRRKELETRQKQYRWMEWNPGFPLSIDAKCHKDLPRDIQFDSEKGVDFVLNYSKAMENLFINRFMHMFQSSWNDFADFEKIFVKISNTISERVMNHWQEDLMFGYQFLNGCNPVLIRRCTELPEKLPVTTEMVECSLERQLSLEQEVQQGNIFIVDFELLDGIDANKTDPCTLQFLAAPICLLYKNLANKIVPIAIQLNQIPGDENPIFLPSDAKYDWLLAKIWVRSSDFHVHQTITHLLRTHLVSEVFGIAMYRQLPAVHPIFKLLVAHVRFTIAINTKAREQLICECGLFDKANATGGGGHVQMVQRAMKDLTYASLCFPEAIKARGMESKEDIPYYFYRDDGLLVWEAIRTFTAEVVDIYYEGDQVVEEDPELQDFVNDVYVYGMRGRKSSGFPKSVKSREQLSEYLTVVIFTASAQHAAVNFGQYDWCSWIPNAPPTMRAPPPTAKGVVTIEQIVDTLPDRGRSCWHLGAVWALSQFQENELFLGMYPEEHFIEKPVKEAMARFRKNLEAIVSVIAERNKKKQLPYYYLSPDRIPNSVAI

[10] = biological target: Cyclooxygenase 1 (prostaglandin) (Homo sapiens, UniProt P23219); details: in vitro, technical literature; cited from earlier work
[11] = test system: IL-1β; details: in vitro, technical literature; cited from earlier work
[12] = test system: IL-2; details: in vitro, technical literature; cited from earlier work
[13] = test system: IFN-γ; details: in vitro, technical literature; cited from earlier work
[14] = test system: TNF-α; details: in vitro, technical literature; cited from earlier work
[15] = test system: NFK B; details: in vitro, technical literature; cited from earlier work
[16] = test system: C3-Convertase; details: in vitro, technical literature; cited from earlier work
[17] = biological target: T2, Elastase (Homo sapiens, UniProt P08246); details: in vitro, technical literature; cited from earlier work
T2 sequence (P08246 30-267): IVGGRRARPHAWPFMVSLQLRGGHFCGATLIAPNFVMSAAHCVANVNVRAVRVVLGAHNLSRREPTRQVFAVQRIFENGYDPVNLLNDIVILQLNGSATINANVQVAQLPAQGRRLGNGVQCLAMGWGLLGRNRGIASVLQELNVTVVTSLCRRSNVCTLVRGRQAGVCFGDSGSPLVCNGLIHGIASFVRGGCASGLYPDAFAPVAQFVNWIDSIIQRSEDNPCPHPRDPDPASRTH

Sequence of Cyclooxygenase 1 (prostaglandin) (P23219 24-599): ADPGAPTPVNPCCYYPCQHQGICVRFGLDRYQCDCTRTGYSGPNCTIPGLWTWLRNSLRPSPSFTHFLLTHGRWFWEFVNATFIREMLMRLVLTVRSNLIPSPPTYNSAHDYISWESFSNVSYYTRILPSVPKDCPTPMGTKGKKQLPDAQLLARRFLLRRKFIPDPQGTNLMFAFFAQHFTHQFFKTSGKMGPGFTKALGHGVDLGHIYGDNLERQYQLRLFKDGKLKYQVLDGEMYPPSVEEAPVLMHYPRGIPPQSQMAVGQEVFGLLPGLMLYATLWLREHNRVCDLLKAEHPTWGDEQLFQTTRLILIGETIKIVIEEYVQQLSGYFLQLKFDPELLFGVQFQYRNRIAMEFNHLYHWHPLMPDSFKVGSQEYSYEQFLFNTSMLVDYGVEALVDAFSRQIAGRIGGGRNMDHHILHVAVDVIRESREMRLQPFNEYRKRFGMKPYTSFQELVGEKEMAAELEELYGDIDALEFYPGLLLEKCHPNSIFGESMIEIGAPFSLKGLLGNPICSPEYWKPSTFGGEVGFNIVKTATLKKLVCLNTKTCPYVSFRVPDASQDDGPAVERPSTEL

Row | SMILES | Signs of apoptosis (activated caspase 3) [1] | Signs of inflammation of the islets of Langerhans (H&E staining, T-lymphocytes by CD3) [1] | Blood glucose level after administration was discontinued after 10 days ([2]; AKBA 15 mg/kg i.p. 10 days) | STZ-induced increase of the blood glucose level [2] | STZ-induced increase in serum IFN-γ [3] | STZ-induced increase in serum IL-1A [4] | STZ-induced increase in serum IL-1B [5] | STZ-induced increase in serum IL-2 [6] | STZ-induced increase in serum IL-6 [7] | STZ-induced increase in serum TNF-α [8] | Effect on 5-Lipoxygenase (leukotriene) [9] | Effect on Cyclooxygenase 1 (prostaglandin) [10] | Effect on IL-1β [11] | Effect on IL-2 [12] | Effect on IFN-γ [13] | Effect on TNF-α [14] | Effect on NFK B [15] | Effect on C3-Convertase [16] | Effect on Elastase [17]
1 | CC(=O)O[C@@H]1CC[C@@]2(C)[C@@H](CC[C@]3(C)[C@@H]2C(=O)C=C2[C@@H]4[C@@H](C)[C@H](C)CC[C@]4(C)CC[C@]23C)[C@@]1(C)C(=O)O [AKBA, acetyl-11-keto-β-boswellic acid] | only minor signs of apoptosis | no signs of inflammation | no significant further increase | significant reduction | reduced or prevented | reduced or prevented | reduced or prevented | reduced or prevented | reduced or prevented | reduced or prevented | Lowered | Lowered | Lowered | Lowered | Lowered | Lowered | Lowered | Lowered | Lowered
2 | C[C@H]1[C@H](C)CC[C@]2(C)CC[C@]3(C)C(=CC(=O)[C@@H]4[C@@]5(C)CC[C@@H](O)[C@](C)(C(=O)O)[C@@H]5CC[C@]43C)[C@H]12 [KBA, 11-keto-β-boswellic acid] | – | neither signs of inflammation | – | reduced | reduced or prevented | reduced or prevented | reduced or prevented | reduced or prevented | reduced or prevented | reduced or prevented | – | – | – | – | – | – | – | – | –
